The values that follow are results of earlier work, collected in patent publication US7087637B2, “Substituted indoles which are PARP inhibitors” (BASF AG, priority 2000, dated 2006).

The conditions of the data set: S. Cuzzocrea et al., Br. J. Pharmacol. 1997, 121, 1065–1074.

For `NC(=O)c1cccc(N)c1` [3-aminobenzamide], the “effects in a model of circulatory shock” value is reported as “protective effects”.
